From US20080274060A1, “Therapeutic Foam” (priority 2005, published 2008)

Test: In vitro absorption of foam/gas in fresh human venous blood
Type: in vitro ADME
Description: In vitro experiments were conducted to determine the absorption of foam made with different gases in fresh human venous blood.
A 20 ml polypropylene syringe barrel was prepared by puncturing its side wall with a relatively large hypodermic needle to make a hole approximately 1 mm in diameter. This hole was then covered by securing a piece of clear flexible vinyl sheet over it with clear adhesive tape. A small magnetic stirrer element was introduced into the syringe barrel and the plunger then replaced. 20 ml of human venous blood was then with withdrawn in the usual manner from a human subject using the specially prepared syringe fitted with a hypodermic needle.
The hypodermic needle was removed and the syringe then placed on a magnetic stirrer unit so that the magnetic element in the syringe thoroughly agitated the blood. The Luer nozzle of the syringe was then connected to a 50 cm piece of manometer tubing which was arranged horizontally and left open at one end. The manometer tubing was secured against a scale.
A 0.5 ml measuring syringe with a fine pre-fitted needle was then filled with foam made from 1% polidocanol solution and air.
The needle of the 0.5 ml syringe was then introduced through the vinyl sheet on the side wall of the 20 ml syringe. […] The 0.5 ml aliquot of foam was then injected quickly and simultaneously a timer started (t0). As the foam displaced blood in the 20 ml syringe, the column of blood from the 20 ml syringe was displaced into the manometer tubing and the distance along the tubing reached by the distal end of the blood column was noted against the scale. The scale itself comprised spaced marker lines equally spaced at about 1 cm intervals.
As the gas in the foam started to be absorbed by the blood, the blood in the manometer tubing started to recede back towards the syringe. After the column appeared to have stopped moving, the timer was stopped (tF). The position of the distal end was again noted.
In this experiment, the air foam test was only observed for a few minutes after tF. […] A 20 ml syringe of fresh human venous blood, as in the above experiments, was injected with a 0.5 ml aliquot of a foam containing a percentage of nitrogen. The contents of the syringe were agitated as above and a period of 24 hours allowed to elapse.

Absorbed volume at tF (0.5 ml aliquot in 20 ml blood): 0.46 mL
Unabsorbed gas % (at tF): 8%
Unabsorbed gas ml (at tF): 0.04 mL
Position of blood at tF ("z") (manometer scale intervals, 45 intervals approx. 0.5 ml): 5.5
tF (time until blood column stopped moving, 0.5 ml aliquot in 20 ml blood): 140 s
SMILES: O=O [Oxygen gas, oxygen gas]
